From patent US20120149645A1, “COMPOSITIONS AND MODULATION OF MYOCYTE ENHANCER FACTOR 2 (MEF2)” (EMORY UNIVERSITY, priority 2010, published 2012)

B1: ND6 MEF2 site probe WT (dsDNA)
DNA 1: CTAAACCCCCATAAATAGGAGAAGGCTT
DNA 2: AAGCCTTCTCCTATTTATGGGGGTTTAG

Key:
[1] = test system: mitochondrial MEF2D and ND6; test: MPTP mouse model, western blotting of mitochondria purified from brain SNpc; type: in vivo; conditions: chronic intraperitoneal MPTP vs saline treated controls
Method: For each group, six eight-week-old mice received chronic intraperitoneal injections of MPTP-HCl in saline or saline alone were killed on 5 or 20 days after injection. Mitochondria purified from brain SNpc region were analyzed by western blotting. Experiments were repeated three times. […] For each group, three mice received stereotactical injection of control vector (GFP) or Mt2Ddn lentivirus in SN. Two weeks later, mice were exposed to MPTP. After treatment for seven days, the survival of lentivirus-transduced TH+ neurons in SN was determined by immunohistochemistry (left panel). Quantitative analysis of nine mice from three independent experiments was shown at the bottom panel (scale bar, 30 μm; **P<0.01). […] Mitochondria were purified from brain striata of postmortem PD patients and controls (normal). Equal amounts of mitochondrial proteins were subjected to western blotting (upper panel). Quantitative analysis of the bands was shown at the right panel (n=13 patients and 13 controls, *P<0.01). Experiments were repeated two times.
Mitochondria were purified from brain tissue using discontinuous sucrose gradient method. Briefly, brain homogenate was made in ice-cold homo-buffer (0.32 M sucrose, 20 mM Tris-HCl, pH 7.4) and spun at 900×g, 4° C. for 10 min. The supernatant was transferred to another clean tube and spun at 10,000×g, 4° C. for 10 min. […]

[2] = test system: TH+ neurons in SNpc; test: MPTP mouse model of PD, TH immunohistochemistry in SNpc; conditions: mice, chronic MPTP exposure; SNpc and striatum
Method: (B) Role of mitochondrial MEF2D-ND6 pathway in maintaining TH+ neurons in SNpc in a MPTP mouse model of PD. For each group, three mice received stereotactical injection of control vector (GFP) or Mt2Ddn lentivirus in SN. Two weeks later, mice were exposed to MPTP. After treatment for seven days, the survival of lentivirus-transduced TH+ neurons in SN was determined by immunohistochemistry (left panel). Quantitative analysis of nine mice from three independent experiments was shown at the bottom panel (scale bar, 30 μm; **P<0.01).

[3] = molecular target: MEF2D (1-91) (UniProt Q63943 Q63943:1-91); test: EMSA; 10 ng protein, on ice 30 min; conditions: tags: GST fusion (N-terminal GST); label: 32P
Sequence of MEF2D (1-91) (Q63943 1-91, one chain of several): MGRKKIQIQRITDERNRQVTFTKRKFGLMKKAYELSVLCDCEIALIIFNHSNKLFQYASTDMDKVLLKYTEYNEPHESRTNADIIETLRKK

Molecule | level of ND6 protein in mouse brain [1] | mitochondrial MEF2D in mouse brain [1] | immunohistochemical signal for tyrosine hydroxylase (TH) [2] | binding result [3]
CN1CC=C(c2ccccc2)CC1 [MPTP, 1-methyl 4-phenyl 1,2,3,6-tetrahydropyridine] | clear decline | significant reduction | loss | 
B1 |  |  |  | binds
